Numbering of substitutions follows the chain as printed. Positions of bridges follow the written chain, without caps; N, C: chain ends. Residues, ends and D or L forms follow the SMILES beside them.
Columns and labels:
rKv4.2 = target: T1, rKv4.2 (Rattus norvegicus, UniProt Q63881); test: cell-based; conditions: whole-cell patch clamp, HEK293T; mean ± SEM, n = 3-8; SEM; read-out: IC50 on rKv4.2 WT
T1 construct: expressed in transfected cells; host or cells: HEK293T
T1 sequence (Q63881 1-630): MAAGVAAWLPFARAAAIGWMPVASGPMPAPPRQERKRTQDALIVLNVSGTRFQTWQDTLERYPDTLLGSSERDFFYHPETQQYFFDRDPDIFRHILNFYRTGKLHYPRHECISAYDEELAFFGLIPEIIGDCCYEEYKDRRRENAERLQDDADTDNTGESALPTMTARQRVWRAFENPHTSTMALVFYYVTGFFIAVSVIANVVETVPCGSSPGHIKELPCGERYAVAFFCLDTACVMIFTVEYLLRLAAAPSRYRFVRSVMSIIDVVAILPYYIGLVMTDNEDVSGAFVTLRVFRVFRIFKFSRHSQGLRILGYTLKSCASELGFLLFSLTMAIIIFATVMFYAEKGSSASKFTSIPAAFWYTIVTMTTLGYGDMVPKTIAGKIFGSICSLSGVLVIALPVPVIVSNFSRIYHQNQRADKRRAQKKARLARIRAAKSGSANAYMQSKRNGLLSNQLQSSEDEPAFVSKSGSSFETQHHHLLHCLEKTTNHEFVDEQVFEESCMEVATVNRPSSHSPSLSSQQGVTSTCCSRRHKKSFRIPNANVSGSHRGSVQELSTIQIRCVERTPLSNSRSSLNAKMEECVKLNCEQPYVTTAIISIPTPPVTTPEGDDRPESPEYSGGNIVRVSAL

rKv4.3 = target: T2, rKv4.3 (Rattus norvegicus, UniProt Q62897); test: cell-based; conditions: whole-cell patch clamp, HEK293T, mean ± S.E.M., SEM
T2 construct: expressed in transfected cells; host or cells: HEK293T
T2 sequence (Q62897 1-655): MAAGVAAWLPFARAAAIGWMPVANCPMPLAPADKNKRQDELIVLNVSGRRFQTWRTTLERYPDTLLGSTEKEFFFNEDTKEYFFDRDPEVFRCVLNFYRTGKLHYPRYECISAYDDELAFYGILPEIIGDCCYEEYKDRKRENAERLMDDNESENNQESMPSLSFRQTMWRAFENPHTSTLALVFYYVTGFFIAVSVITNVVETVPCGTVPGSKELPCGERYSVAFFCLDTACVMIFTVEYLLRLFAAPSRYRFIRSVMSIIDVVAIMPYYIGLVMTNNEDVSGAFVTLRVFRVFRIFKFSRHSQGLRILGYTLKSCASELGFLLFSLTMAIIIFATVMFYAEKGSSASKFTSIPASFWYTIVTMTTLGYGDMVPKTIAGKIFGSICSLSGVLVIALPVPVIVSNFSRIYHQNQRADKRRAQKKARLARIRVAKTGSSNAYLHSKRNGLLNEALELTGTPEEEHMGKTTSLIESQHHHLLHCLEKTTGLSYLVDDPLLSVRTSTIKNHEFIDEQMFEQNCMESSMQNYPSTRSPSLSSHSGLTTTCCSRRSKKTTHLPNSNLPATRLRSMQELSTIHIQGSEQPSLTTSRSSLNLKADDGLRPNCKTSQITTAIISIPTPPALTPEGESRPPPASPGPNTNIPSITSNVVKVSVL

rKv4.2 E283K = target: T3, rKv4.2 E283K (Rattus norvegicus, UniProt Q63881, E283K); test: cell-based; conditions: mean ± SEM
T3 construct: expressed in transfected cells; host or cells: HEK293T
T3 sequence (Q63881 1-630 E283K): T1 sequence (Q63881 1-630) with E283K

rKv4.2 D284K = target: T4, rKv4.2 D284K (Rattus norvegicus, UniProt Q63881, D284K); test: cell-based; conditions: mean ± SEM
T4 construct: expressed in transfected cells; host or cells: HEK293T
T4 sequence (Q63881 1-630 D284K): T1 sequence (Q63881 1-630) with D284K

[1] = tested on: other Kv channels (hKv1.1-1.5, rKv2.1, hKv3.1-3.4, mKv4.1, hKv7.2 and hERG); conditions: n = 3-4
[2] = held at -80 mV, step to 0 mV, n = 3-8

SMILES | IC50 (rKv4.2) [nM] | IC50 (rKv4.3; [2]) [nM] | IC50 (rKv4.2 E283K) [nM] | IC50 (rKv4.2 D284K) [nM] | effect on the current traces of other Kv channels ([1]; 1 µM toxin) | IC50 (rKv4.2 D284K; SEM) [nM] | IC50 (rKv4.3; n = 5) [nM] | inhibition on other Kv channel subtypes ([1]; 10 µM)
CC(C)C[C@H](NC(=O)[C@H](Cc1ccc(O)cc1)NC(=O)[C@@H](NC(=O)[C@H](CCCCN)NC(=O)[C@@H]1CSSC[C@@H]2NC(=O)[C@H](CCC(=O)O)NC(=O)[C@H](CC(N)=O)NC(=O)[C@H](CCCCN)NC(=O)CNC(=O)[C@@H]3CCCN3C(=O)[C@H]([C@@H](C)O)NC(=O)[C@@H]3CSSC[C@H](NC(=O)[C@H](C)NC(=O)[C@H](Cc4ccc(O)cc4)NC(=O)[C@H](CC(N)=O)NC(=O)[C@@H]4CCCN4C(=O)[C@H](CSSC[C@H](NC(=O)CN)C(=O)N[C@@H](CCCCN)C(=O)NCC(=O)N[C@@H](Cc4ccccc4)C(=O)NCC(=O)N[C@@H](CC(=O)O)C(=O)N[C@@H](CO)C(=O)N3)NC2=O)C(=O)N[C@@H](CO)C(=O)N[C@@H](CO)C(=O)N[C@@H](CCCCN)C(=O)N[C@@H](Cc2c[nH]cn2)C(=O)N[C@@H](CCCCN)C(=O)N[C@@H](Cc2c[nH]c3ccccc23)C(=O)N1)C(C)C)C(N)=O [HNTX-III] (H-GCKGFGDSCTPGKNECCPNYACSSKHKWCKVYL-NH2; disulfide 2-17, 9-22, 16-29) | 162 ± 23 | 373 ± 65.5 | 3000 ± 1000 | > 20000 | no obvious or only minimal effect |  |  | 
CC[C@H](C)[C@H](NC(=O)[C@H](CCC(=O)O)NC(=O)[C@H](Cc1ccc(O)cc1)NC(=O)[C@H](CCCCN)NC(=O)[C@@H]1CSSC[C@@H]2NC(=O)[C@H](CCC(N)=O)NC(=O)[C@H](CC(=O)O)NC(=O)[C@H](CC(N)=O)NC(=O)[C@H](CO)NC(=O)[C@@H]3CCCN3C(=O)[C@H](CC(N)=O)NC(=O)[C@@H]3CSSC[C@H](NC(=O)[C@H](C(C)C)NC(=O)[C@H](CC(C)C)NC(=O)[C@H](CC(N)=O)NC(=O)[C@H](CO)NC(=O)[C@H](CO)NC(=O)[C@H](CCCCN)NC(=O)[C@H](CSSC[C@H](NC(=O)[C@@H](N)CCC(=O)O)C(=O)N[C@@H](CC(C)C)C(=O)NCC(=O)N[C@@H](Cc4ccccc4)C(=O)NCC(=O)N[C@@H](CCCCN)C(=O)NCC(=O)N3)NC2=O)C(=O)N[C@@H](CO)C(=O)N[C@@H](CCCNC(=N)N)C(=O)N[C@@H](CCCCN)C(=O)N[C@@H](Cc2c[nH]cn2)C(=O)N[C@@H](CCCNC(=N)N)C(=O)N[C@@H](Cc2c[nH]c3ccccc23)C(=O)N1)C(N)=O [HNTX-IV] | 51 ± 10 | 189 ± 14.7 | 5630 ± 1280 | > 20000 |  |  |  | 
CSCC[C@@H]1NC(=O)CNC(=O)[C@H](CCC(=O)O)NC(=O)[C@@H]2CSSC[C@H](NC(=O)[C@@H](N)Cc3ccc(O)cc3)C(=O)N[C@@H](CCC(N)=O)C(=O)N[C@@H](CCCCN)C(=O)N[C@@H](Cc3c[nH]c4ccccc34)C(=O)N[C@@H](CCSC)C(=O)N[C@@H](Cc3c[nH]c4ccccc34)C(=O)N[C@@H]([C@@H](C)O)C(=O)N[C@H]3CSSC[C@H](NC(=O)[C@H](C(C)C)NC1=O)C(=O)N[C@@H](CCCNC(=N)N)C(=O)N[C@@H](CC(C)C)C(=O)N[C@@H](Cc1c[nH]c4ccccc14)C(=O)N[C@H](C(=O)N[C@@H](CCCCN)C(=O)N[C@@H](CCCCN)C(=O)N[C@@H](CCCCN)C(=O)N[C@@H](CC(C)C)C(=O)N[C@@H](Cc1c[nH]c4ccccc14)C(=O)O)CSSC[C@H](NC(=O)[C@H](CCCCN)NC(=O)[C@H](CCCNC(=N)N)NC(=O)[C@H](CCC(=O)O)NC(=O)[C@H](CO)NC(=O)[C@H](CC(=O)O)NC3=O)C(=O)N2 [ProTx-II] | 5 ± 2 | 5.1 ± 0.4 | 14 ± 6 |  |  | 20 ± 2 |  | 
CC[C@H](C)[C@@H]1NC(=O)[C@@H]2CSSC[C@@H]3NC(=O)[C@H](C(C)C)NC(=O)[C@H](CC(C)C)NC(=O)[C@H](CC(N)=O)NC(=O)[C@@H]4CCCN4C(=O)[C@H](CCCNC(=N)N)NC(=O)[C@H](CSSC[C@H](NC(=O)[C@@H](N)CC(=O)O)C(=O)N[C@@H](CC(C)C)C(=O)NCC(=O)N[C@@H](C)C(=O)N[C@@H](Cc4ccccc4)C(=O)N[C@@H](CCCNC(=N)N)C(=O)N[C@@H](CCCCN)C(=O)N2)NC(=O)[C@H](CSSC[C@@H](C(=O)N[C@@H](CCCCN)C(=O)N[C@@H](Cc2ccc(O)cc2)C(=O)N[C@H](C(=O)N[C@@H](Cc2ccccc2)C(N)=O)C(C)C)NC(=O)[C@H](Cc2c[nH]c4ccccc24)NC(=O)[C@H](CCCNC(=N)N)NC(=O)[C@H](Cc2c[nH]cn2)NC(=O)[C@H](C)NC(=O)[C@H](CO)NC(=O)[C@H](CO)NC3=O)NC(=O)[C@H](CCCCN)NC(=O)[C@H](CC(=O)O)NC(=O)[C@H](CC(N)=O)NC(=O)[C@H](CC(=O)O)NC(=O)[C@@H]2CCCN2C1=O [mGpTx1-SA] (H-DCLGAFRKCIPDNDKCCRPNLVCSSAHRWCKYVF-NH2; disulfide 2-17, 9-23, 16-30) | 30000 ± 9000 |  |  |  |  |  | 2000 ± 300 | low inhibition

From paper PMC11558128 (Advanced Science, 2024)
